The source of these data is patent US20210252104A1, “ANTIBACTERIAL PEPTIDE MONOMERS AND COMBINATIONS FOR CO-THERAPY” (ARREVUS, INC., priority 2018, published 2021).

≈ marks a conversion by molar mass, not a printed value. Where two headings read alike, the source gives them in different places. Positions of bridges follow the written chain, without caps; N, C: chain ends. Non-standard residues stand in square brackets, D forms with d. Residues, ends and D or L forms follow the SMILES beside them. Chains are numbered I, II in the order given. *: point of attachment. X2 = CN(C)C(=N[C@@H](CCCNC(=N)N)C(=O)*)N(C)C; aThr = C[C@H](O)[C@H](N)C(=O)O; Ac6c = NC1(C(=O)O)CCCCC1; Dab = NCC[C@H](N)C(=O)O; Nva = CCC[C@H](N)C(=O)O; Pentanoyl = CCCCC(=O)*; Butyryl = CCCC(=O)*; NHNH2 = NN* Where only a bound is given, the exact number is not on record here.

Series [1] has as its system K. pneumoniae K97/09.
Series [2] deals with K. pneumoniae K97/09. The experiment in a line: FIC checkerboard assay (combinations). It is filed as cell-based. As to conditions: for Effect of combining antimicrobials on MIC: K97/09, with imipenem or colistin.
Series [3] has as its system A. baumannii strain (BAA-1605). Description: FIC checkerboard assay (combinations). It is filed as cell-based. As to conditions: with imipenem (or colistin).
In series [4] the test system is Burkholderia pseudomallei 1026b. It is filed as in vivo. As to conditions: for B. pseudomallei load in survivals (CFU/spleen) / total number of samples analyzed/samples with CFU > 10^8: day 62; for B. pseudomallei load in survivals (CFU/spleen): mean of samples with <10^8 CFU/spleen; for Number of deaths: every 6 h for 21 days, 10 mice, to day 62; for total number of samples analyzed/samples with CFU > 10^8: spleens.

Series [5] deals with P. aeruginosa ATCC 47085.
In series [6] the test system is A. Baumannii ATCC 19606.
Series [7] has as its system E. Coli ATCC 29222.
The subject of series [8] is K. Pneumoniae ATCC 13883.
Series [9] in a line: in vitro. As to conditions: rat, H-4-II-E cells (ATCC CRL-1548).
The subject of series [10] is Acinetobacter baumannii BAA-1805 (MACI).
The subject of series [11] is A. baumannii strain (BAA-1605). The experiment in a line: microbe, parasite or virus in culture. It is filed as cell-based.

In [1] (K97/09), `CCC[C@H](NC(=O)[C@H](CCC(=O)O)NC(=O)[C@@H](N)[C@H](C)O)C(=O)N[C@H](C(=O)N[C@@H](C)C(=O)N[C@@H](CC(C)C)C(=O)N[C@@H](CO)C(=O)N[C@@H](CCCNC(=N)N)C(=O)NC1(C(N)=O)CCCCC1)C(C)C` [Allo-aca] (H-[aThr]E[Nva]VALSR[Ac6c]-NH2) came in with an MIC above 256 µg/mL. Besides, the “Effect of combining antimicrobials on MIC” value in series [2] and in series [3] was “failed to exert any improvement in the MIC values” throughout.
On to `CC(C)(O/N=C(\C(=O)N[C@@H]1C(=O)N2C(C(=O)[O-])=C(C[n+]3ccccc3)CS[C@H]12)c1csc(N)n1)C(=O)O` [Ceftazidime], for which, in series [4] (Ceftazidime 150 mg/kg ip), the “Median survival (days post-challenge)” value was determined as 56.5 days post-challenge, the “B. pseudomallei load in survivals (CFU/spleen)” value was 2.6 × 10^5 CFU/spleen, the Number of deaths came to 6 and the “total number of samples analyzed/samples with CFU > 10^8” value is listed as 4/1. Moreover, in [4] (Ceftazidime 300 mg/kg ip), the “Median survival (days post-challenge)” value is listed as “(>50% survival)”, the “B. pseudomallei load in survivals (CFU/spleen)” value is given as 2.4 × 10^5 CFU/spleen, the Number of deaths was 3 and the “total number of samples analyzed/samples with CFU > 10^8” value is reported as 3/1. Further, in series [4] (ceftazidime monotherapy 150 mg/kg), the “Survival rate at the 62-day endpoint” value is recorded as 40%. Besides, the “Survival rate at the 62-day endpoint” value in series [4] (ceftazidime monotherapy 300 mg/kg) is recorded as 70%.
Regarding `CCCC(=O)N[C@@H](CCCNC(=N)N)C(=O)N1CCC[C@H]1C(=O)N[C@@H](CC(=O)O)C(=O)N[C@@H](CCCCN)C(=O)N1CCC[C@H]1C(=O)N[C@@H](CCCNC(=N)N)C(=O)N1CCC[C@H]1C(=O)N[C@@H](Cc1ccc(O)cc1)C(=O)N[C@@H](CC(C)C)C(=O)N1CCC[C@H]1C(=O)N[C@@H](CCCNC(=N)N)C(=O)N1CCC[C@H]1C(=O)N[C@@H](CCCNC(=N)N)C(=O)N1CCC[C@H]1C(=O)N1CCC[C@H]1C(=O)N[C@@H](CCCNC(=N)N)C(=O)N1CCC[C@H]1C(=O)N[C@H](C(=O)N[C@@H](CCCNC(=N)N)C(N)=O)C(C)C` [Example 3, Bu-RPDKPRPYLPRPRPPRPVR-NH2] (Butyryl-RPDKPRPYLPRPRPPRPVR-NH2), the MIC in series [5] is 96.3 ± 3.2 µM (≈ 233 µg/mL); in [6] it was above 100 µM; in [7], 6.5 ± 2.6 µM (≈ 15.7 µg/mL); in series [8] it was 2.2 ± 0.4 µM (≈ 5.32 µg/mL).
Turning to `CCCCC(=O)N[C@@H](CCCNC(=N)N)C(=O)N1CCC[C@H]1C(=O)N[C@@H](CC(=O)O)C(=O)N[C@@H](CCCCN)C(=O)N1CCC[C@H]1C(=O)N[C@@H](CCCNC(=N)N)C(=O)N1CCC[C@H]1C(=O)N[C@@H](Cc1ccc(O)cc1)C(=O)N[C@@H](CC(C)C)C(=O)N1CCC[C@H]1C(=O)N[C@@H](CCCNC(=N)N)C(=O)N1CCC[C@H]1C(=O)N[C@@H](CCCNC(=N)N)C(=O)N1CCC[C@H]1C(=O)N1CCC[C@H]1C(=O)N[C@@H](CCCNC(=N)N)C(=O)N1CCC[C@H]1C(=O)N[C@H](C(=O)N[C@@H](CCCNC(=N)N)C(N)=O)C(C)C` [Example 4, Va-RPDKPRPYLPRPRPPRPVR-NH2] (Pentanoyl-RPDKPRPYLPRPRPPRPVR-NH2), the MIC was 82.0 ± 5.0 µM (≈ 200 µg/mL) in [5], above 100 µM in [6], 5.6 ± 1.8 µM (≈ 13.6 µg/mL) in [7] and 2.1 ± 0.0 µM (≈ 5.11 µg/mL) in [8].
The matching figures for `CC(C)C[C@H](NC(=O)[C@H](Cc1ccc(O)cc1)NC(=O)[C@@H]1CCCN1C(=O)[C@H](CCCNC(=N)N)NC(=O)[C@@H]1CCCN1C(=O)[C@H](CCCCN)NC(=O)[C@H](CC(=O)O)NC(=O)[C@@H]1CCCN1C(=O)[C@H](CCCNC(=N)N)N=C(N(C)C)N(C)C)C(=O)N1CCC[C@H]1C(=O)N[C@@H](CCCNC(=N)N)C(=O)N1CCC[C@H]1C(=O)N[C@@H](CCCNC(=N)N)C(=O)N1CCC[C@H]1C(=O)N1CCC[C@H]1C(=O)N[C@@H](CCCNC(=N)N)C(=O)N1CCC[C@H]1C(=O)N[C@H](C(=O)N[C@@H](CCCNC(=N)N)C(N)=O)C(C)C` [Example 5, Gu-RPDKPRPYLPRPRPPRPVR-NH2] (X2-PDKPRPYLPRPRPPRPVR-NH2; N-terminus assumed): 64.7 ± 2.1 µM (≈ 158 µg/mL), above 100 µM, 5.8 ± 2.2 µM (≈ 14.2 µg/mL) and 1.5 ± 0.4 µM (≈ 3.67 µg/mL).
As for `CC(C)C[C@H](NC(=O)[C@H](Cc1ccc(O)cc1)NC(=O)[C@@H]1CCCN1C(=O)[C@H](CCCNC(=N)N)NC(=O)[C@@H]1CCCN1C(=O)[C@H](CCCCN)NC(=O)[C@H](CC(=O)O)NC(=O)[C@@H]1CCCN1C(=O)[C@H](CCCNC(=N)N)NC(=O)C1(N)CCCCC1)C(=O)N1CCC[C@H]1C(=O)N[C@@H](CCCNC(=N)N)C(=O)N1CCC[C@H]1C(=O)N[C@@H](CCCNC(=N)N)C(=O)N1CCC[C@H]1C(=O)N1CCC[C@H]1C(=O)N[C@@H](CCCNC(=N)N)C(=O)N1CCC[C@H]1C(=O)N[C@H](C(=O)N[C@@H](CCCNC(=N)N)C(=O)O)C(C)C` [Example 6, Chex-RPDKPRPYLPRPRPPRPVR-OH] (H-[Ac6c]RPDKPRPYLPRPRPPRPVR-OH), the MIC in [5] was above 100 µM; in [6], above 100 µM; in [7] it was 6.7 ± 1.3 µM (≈ 16.6 µg/mL); in series [8] it was 2.0 ± 0.1 µM (≈ 4.95 µg/mL). This compound displayed a CC50 in [9] of 48.1 ± 3.4 µM.
Take `CC(C)C[C@H](NC(=O)[C@H](Cc1ccc(O)cc1)NC(=O)[C@@H]1CCCN1C(=O)[C@H](CCCNC(=N)N)NC(=O)[C@@H]1CCCN1C(=O)[C@H](CCCCN)NC(=O)[C@H](CC(=O)O)NC(=O)[C@@H]1CCCN1C(=O)[C@H](CCCNC(=N)N)NC(=O)C1(N)CCCCC1)C(=O)N1CCC[C@H]1C(=O)N[C@@H](CCCNC(=N)N)C(=O)N1CCC[C@H]1C(=O)N[C@@H](CCCNC(=N)N)C(=O)N1CCC[C@H]1C(=O)N1CCC[C@H]1C(=O)N[C@@H](CCCNC(=N)N)C(=O)N1CCC[C@H]1C(=O)N[C@H](C(=O)N[C@@H](CCCNC(=N)N)C(=O)NN)C(C)C` [Example 7, Chex-RPDKPRPYLPRPRPPRPVR-NH-NH2] (H-[Ac6c]RPDKPRPYLPRPRPPRPVR-NHNH2; N-terminus assumed): the MIC stood at 28.9 ± 2.7 µM (≈ 72 µg/mL) in series [5], 52.5 ± 9.5 µM (≈ 131 µg/mL) in series [6], 4.0 ± 1.5 µM (≈ 9.96 µg/mL) in series [7] and 1.7 ± 0.1 µM (≈ 4.23 µg/mL) in series [8].
The matching figures for “Ac-RPDKPRPYLPRPRPPRPVR-NH2 [Example 2, Ac-RPDKPRPYLPRPRPPRPVR-NH2]”: above 100 µM, above 100 µM, 3.6 ± 0.1 µM and 2.0 ± 0.2 µM.
With “I: H-[Ac6c]RPDKPRPYLGRPRPPRPVR[Dab]-NH2 / II: H-[Ac6c]RPDKPRPYLGRPRPPRPVR (amide I:21-II:C) [Gly11, (H-Chex-Arg-Pro-Asp-Lys-Pro-Arg-Pro-Tyr-Leu-Gly-Arg-Pro-Arg-Pro-Pro-Arg-Pro-Val-Arg)2-Dab-NH2]”, the “KPC MIC” value in series [1] (K97/09) was above 256 µg/mL. Besides, the “Effect of combining antimicrobials on MIC” value in series [2] and in series [3] was “failed to exert any improvement in the MIC values” each time. For the same compound, the “MACI MIC” value in series [10] (Acinetobacter baumannii (MACI)) is above 256 µg/mL.
“I: H-[Ac6c]RPDKPRPYLPRPRPPRPVR[Dab]-NH2 / II: H-[Ac6c]RPDKPRPYLPRPRPPRPVR (amide I:21-II:C; C-terminus assumed) [Example A3-APO, (H-Chex-Arg-Pro-Asp-Lys-Pro-Arg-Pro-Tyr-Leu-Pro-Arg-Pro-Arg-Pro-Pro-Arg-Pro-Val-Arg)2-Dab]”: the “KPC MIC” value in series [1] (K97/09) was 32 to 64 µg/mL. Also, the “MACI MIC” value in [10] (BAA-1805) lay in the range of 32 to 64 µg/mL.
colistin: in [1], the “KPC MIC” value worked out at 64 µg/mL and the MIC was 64 µg/mL. Also, the ΣFIC in series [2] was determined as 0.08. Also, the “MACI MIC” value in series [10] (Acinetobacter baumannii (MACI)) was below 0.5 µg/mL. This compound displayed an MIC in series [11] below 0.5 µg/mL.
